Data: ChEMBL document CHEMBL3045793, “The synthesis, anti-inflammatory and antimicrobial activity evaluation of novel thioanalogs of 3,4-dihydrothiopyrimidin-2(1H)-one derivatives of N-aryl urea” (2012)
Converted amounts (≈) assume the structure as drawn. The source made the active and inactive calls. The calls are words filed in the database; no cut-off is given here.

Tests used:
Aspergillus flavus [1] = assay: Antifungal activity against Aspergillus flavus up to 200 ug/ml by agar well diffusion method; type: functional, organism-based
Fusarium solani [2] = assay: Antifungal activity against Fusarium solani up to 200 ug/ml by agar well diffusion method; type: functional, organism-based
Aspergillus niger [3] = assay: Antifungal activity against Aspergillus niger up to 200 ug/ml by agar well diffusion method; type: functional, organism-based
Candida albicans [4] = assay: Antifungal activity against Candida albicans up to 200 ug/ml by agar well diffusion method; type: functional, organism-based
Salmonella typhimurium [5] = assay: Antibacterial activity against Salmonella enterica subsp. enterica serovar Typhimurium up to 200 ug/ml by agar well diffusion method; type: functional, organism-based
Escherichia coli [6] = assay: Antibacterial activity against Escherichia coli up to 200 ug/ml by agar well diffusion method; type: functional, organism-based
Bacillus subtilis [7] = assay: Antibacterial activity against Bacillus subtilis up to 200 ug/ml by agar well diffusion method; type: functional, organism-based
Staphylococcus aureus [8] = assay: Antibacterial activity against Staphylococcus aureus up to 200 ug/ml by agar well diffusion method; type: functional, organism-based
THP-1 [9] = assay: Anti-inflammatory activity in Homo sapiens (human) THP1 cells assessed as inhibition of LPS-induced IL-6 production preincubated at 10 uM for 30 min before LPS treatment measured after 24 hr by ELISA; type: functional
THP-1 [10] = assay: Anti-inflammatory activity in Homo sapiens (human) THP1 cells assessed as inhibition of LPS-induced TNF-alpha production preincubated at 10 uM for 30 min before LPS treatment measured after 24 hr by ELISA; type: functional
Fusarium solani [11] = assay: Antifungal activity against Fusarium solani by agar well diffusion method; type: functional
Candida albicans [12] = assay: Antifungal activity against Candida albicans by agar well diffusion method; type: functional
Staphylococcus aureus [13] = assay: Antibacterial activity against Staphylococcus aureus by agar well diffusion method; type: functional
Aspergillus flavus [14] = assay: Antifungal activity against Aspergillus flavus by agar well diffusion method; type: functional
Aspergillus niger [15] = assay: Antifungal activity against Aspergillus niger by agar well diffusion method; type: functional
Escherichia coli [16] = assay: Antibacterial activity against Escherichia coli by agar well diffusion method; type: functional
Salmonella typhimurium [17] = assay: Antibacterial activity against Salmonella enterica subsp. enterica serovar Typhimurium by agar well diffusion method; type: functional
Bacillus subtilis [18] = assay: Antibacterial activity against Bacillus subtilis by agar well diffusion method; type: functional

| Compound | Activity (Aspergillus flavus [1]) | Activity (Fusarium solani [2]) | Activity (Aspergillus niger [3]) | Activity (Candida albicans [4]) | Activity (Salmonella typhimurium [5]) | Activity (Escherichia coli [6]) | Activity (Bacillus subtilis [7]) | Activity (Staphylococcus aureus [8]) | inhibition at 10 µM (THP-1 [9]) [%] | inhibition at 10 µM (THP-1 [10]) [%] | MIC (Fusarium solani [11]) [µg/mL] | MIC (Candida albicans [12]) [µg/mL] | MIC (Staphylococcus aureus [13]) [µg/mL] | MIC (Aspergillus flavus [14]) [µg/mL] | MIC (Aspergillus niger [15]) [µg/mL] | MIC (Escherichia coli [16]) [µg/mL] | MIC (Salmonella typhimurium [17]) [µg/mL] | MIC (Bacillus subtilis [18]) [µg/mL] |
| --- | --- | --- | --- | --- | --- | --- | --- | --- | --- | --- | --- | --- | --- | --- | --- | --- | --- | --- |
| CCOC(=O)C1=C(C)NC(=S)NC1c1ccc(NC(=S)Nc2ccc(C)c(C)c2)cc1 (centres undefined) | inactive | inactive | inactive | inactive | inactive | inactive | inactive | inactive | 8 | 0 | – | – | – | – | – | – | – | – |
| CCOC(=O)C1=C(C)NC(=S)NC1c1ccc(NC(=S)Nc2ccc(F)c(C)c2)cc1 (centres undefined) | inactive | – | inactive | – | inactive | inactive | inactive | – | 27 | 0 | 95 (≈ 207 µM) | 95 (≈ 207 µM) | 80 (≈ 174 µM) | – | – | – | – | – |
| CCOC(=O)C1=C(C)NC(=S)NC1c1ccc(NC(=S)Nc2ccccc2OC(F)(F)F)cc1 (centres undefined) | – | – | – | – | – | – | – | – | 54 | 27 | 10 (≈ 19.6 µM) | 10 (≈ 19.6 µM) | 45 (≈ 88.1 µM) | 15 (≈ 29.4 µM) | 30 (≈ 58.8 µM) | 35 (≈ 68.6 µM) | 10 (≈ 19.6 µM) | 20 (≈ 39.2 µM) |
| CCOC(=O)C1=C(C)NC(=S)NC1c1ccc(NC(=S)Nc2ccccc2F)cc1 (centres undefined) | – | – | – | – | – | – | – | – | 22 | 0 | 15 (≈ 33.7 µM) | 10 (≈ 22.5 µM) | 10 (≈ 22.5 µM) | 15 (≈ 33.7 µM) | 10 (≈ 22.5 µM) | 10 (≈ 22.5 µM) | 15 (≈ 33.7 µM) | 25 (≈ 56.2 µM) |
| CCOC(=O)C1=C(C)NC(=S)NC1c1ccc(NC(=S)Nc2c(C)cccc2Cl)cc1 (centres undefined) | – | – | – | – | – | – | – | – | 55 | 32 | 60 (≈ 126 µM) | 65 (≈ 137 µM) | 40 (≈ 84.2 µM) | 60 (≈ 126 µM) | 90 (≈ 189 µM) | 65 (≈ 137 µM) | 65 (≈ 137 µM) | 80 (≈ 168 µM) |
| CCOC(=O)C1=C(C)NC(=S)NC1c1ccc(NC(=S)Nc2cc(F)cc(F)c2)cc1 (centres undefined) | inactive | inactive | – | inactive | – | inactive | – | – | 82 | 55 | – | – | 65 (≈ 141 µM) | – | 85 (≈ 184 µM) | – | 90 (≈ 195 µM) | 90 (≈ 195 µM) |
| CCOC(=O)C1=C(C)NC(=S)NC1c1ccc(N)cc1 (centres undefined) | – | – | – | – | – | – | – | – | 3 | 0 | 35 (≈ 120 µM) | 55 (≈ 189 µM) | 60 (≈ 206 µM) | 80 (≈ 275 µM) | 55 (≈ 189 µM) | 40 (≈ 137 µM) | 45 (≈ 154 µM) | 85 (≈ 292 µM) |
| CCOC(=O)C1=C(C)NC(=S)NC1c1ccc(NC(=S)Nc2ccc(OC)cc2)cc1 (centres undefined) | – | – | – | – | – | – | – | – | 48 | 0 | – | – | 10 (≈ 21.9 µM) | – | – | 10 (≈ 21.9 µM) | 25 (≈ 54.8 µM) | 40 (≈ 87.6 µM) |
| CCOC(=O)C1=C(C)NC(=S)NC1c1ccc(NC(=S)Nc2c(C)cccc2F)cc1 (centres undefined) | – | – | – | – | – | – | inactive | – | 16 | 0 | 65 (≈ 142 µM) | 50 (≈ 109 µM) | 90 (≈ 196 µM) | 60 (≈ 131 µM) | 55 (≈ 120 µM) | 70 (≈ 153 µM) | 90 (≈ 196 µM) | – |
| CCOC(=O)C1=C(C)NC(=S)NC1c1ccc([N+](=O)[O-])cc1 (centres undefined) | – | – | – | – | – | – | – | – | 3 | 0 | 75 (≈ 233 µM) | 30 (≈ 93.4 µM) | 40 (≈ 124 µM) | 65 (≈ 202 µM) | 65 (≈ 202 µM) | 45 (≈ 140 µM) | 30 (≈ 93.4 µM) | 55 (≈ 171 µM) |
| CCOC(=O)C1=C(C)NC(=S)NC1c1ccc(NC(=S)Nc2cc(C(F)(F)F)ccc2Cl)cc1 (centres undefined) | inactive | inactive | – | – | – | – | – | – | 96 | 78 | – | 85 (≈ 161 µM) | 90 (≈ 170 µM) | – | 90 (≈ 170 µM) | 80 (≈ 151 µM) | 90 (≈ 170 µM) | 85 (≈ 161 µM) |
| CCOC(=O)C1=C(C)NC(=S)NC1c1ccc(NC(=S)Nc2ccc(C(F)(F)F)cc2Cl)cc1 (centres undefined) | – | – | – | – | – | – | – | – | 68 | 55 | 90 (≈ 170 µM) | 50 (≈ 94.5 µM) | 90 (≈ 170 µM) | 60 (≈ 113 µM) | 55 (≈ 104 µM) | 65 (≈ 123 µM) | 55 (≈ 104 µM) | 55 (≈ 104 µM) |
| O=C(O)c1cn(C2CC2)c2cc(N3CCNCC3)c(F)cc2c1=O [CIPROFLOXACIN] | – | – | – | – | – | – | – | – | – | – | – | – | – | – | – | 15 (≈ 45.3 µM) | 25 (≈ 75.4 µM) | 25 (≈ 75.4 µM) |
